# Laboratory results from patent US9828398B2, “Compound for bone scanning and use thereof” (TAIWAN HOPAX CHEMS. MFG. CO., LTD., priority 2015, dated 2017).
# Test: Planar scintigraphy of 111In-compounds in normal rats
# Assay type: in vivo
# Details: 1, 24 and 48 hours after ^111In-OMS or ^111In-OB121
# Procedure: FIG. 31 is planar scintigraphy of ^111In-Compounds ([…], iv, at 1-48 hours acquired 500,000, count) in normal rats.
# Pamidronate (PAM), Methyl diphosphonate (MDP) and OMS are bone-related agents and were used as control group in present invention. Scintigraphic images, captured by a gamma camera equipped with low-energy, parallel-hole collimator or micro-PET, were obtained in 0.5-2 hours. The selected images are shown in FIGS. 29 and 30, wherein FIG. 29 compares the planar images of 30, 60, and 120 min of normal rats which were taken ^99mTc-PAM, ^99mTc-MDP, ^99mTc-OMS, ^99mTc-OB141, ^99mTc-OB 121 and ^99mTc-DTPA-BP respectively. FIG. 30 compares the planar images of 20, 60, and 150 min of normal rats which were taken ^99mTc-MDP, ^99mTc-DTPA-AMDP, and ^99mTc-MAMA-AMDP respectively. Higher joint-to-muscle (J/M) or bone-to-muscle (B/M) ratios and the better quality of bone images were achieved. […] Besides, as tetraazacyclic groups are very lipophilic so that they may have potential applications in the treatment of osteoporosis. Thus, tetraazacyclic groups were labeled with In-111 for longer observation.
smiles,measurement,value
"O=P(O)(O)C(O)(CN1CCN(CC(O)(P(=O)(O)O)P(=O)(O)O)CCN(CC(O)(P(=O)(O)O)P(=O)(O)O)CCN(CC(O)(P(=O)(O)O)P(=O)(O)O)CC1)P(=O)(O)O [OB-121, 1,4,7,10-Tetraazacyclododecane-1,4,7,10-tetrakis(2-hydroxy-ethylenebisphosphonate)]",quality of planar images,better compound for getting high quality images
